Assay results: article PMC3163380, “Design, Synthesis and Biological Evaluation of Novel Pyrimido[4,5-d]pyrimidine CDK2 Inhibitors as Anti-Tumor Agents” (Scientia Pharmaceutica, 2011)

Tests used:
IGROV1 = experiment: NCI primary anti-cancer assay (SRB), IGROV1; type: cell-based; settings: Homo sapiens, IGROV-1; 10^−5M; Ovarian Cancer IGROV1; read-out: Growth Inhibition %
Description: (§1) Evaluation of anti-cancer activities on pyrimido[4,5-d]pyrimidine derivatives were performed at the National Cancer Institute (NCI) USA. First the newly synthesized compounds have been evaluated in primary anti-cancer assay at 10^−5M concentration against 60 human tumor cell lines then the active compounds were tested at 5 different concentrations against the same 60 human tumor cell lines. The biological data for the newly synthesized compounds are compiled in table 2
(§2) The cytotoxic activity was measured in vitro for the newly synthesized compounds using the SulfoRhodamine-B stain (SRB) assay using the method of Skehan. Cells were plated in 96-multiwell microtiter plate (10^4 cells/well) for 24 h before treatment with the compound(s) to allow attachment of cell to the wall of the plate. Tested compounds were dissolved in DMSO and diluted with saline to the appropriate volume. Triplicate wells were prepared for each individual dose. Monolayer cells were incubated with the compound(s) for 48 h at 37 °C and in atmosphere of 5% CO2. After 48 h, cells were fixed, washed, and stained for 30 min with 0.4% (wt/vol) with SRB dissolved in 1% acetic acid. Unbound dye was removed by four washes with 1% acetic acid, and attached stain was recovered with Tris-EDTA buffer. Color intensity was measured in an ELISA reader. The relation between surviving fraction and drug concentration is plotted to get the survival curve for tumor cell line after the specified time.

UO-31 = experiment: NCI primary anti-cancer assay (SRB), UO-31; type: cell-based; settings: Homo sapiens; 10^−5M; Renal Cancer UO-31; read-out: Growth Inhibition %
Description: as §1, §2

[1] = target: T1, human EGFR tyrosine kinase domain (Homo sapiens, UniProt P00533); experiment: EGFR tyrosine kinase inhibition assay; type: biochemical; settings: mean of at least two independent experiments
T1 construct: C-terminal human EGFR tyrosine kinase domain
T1 sequence (P00533 712-979 limits assumed): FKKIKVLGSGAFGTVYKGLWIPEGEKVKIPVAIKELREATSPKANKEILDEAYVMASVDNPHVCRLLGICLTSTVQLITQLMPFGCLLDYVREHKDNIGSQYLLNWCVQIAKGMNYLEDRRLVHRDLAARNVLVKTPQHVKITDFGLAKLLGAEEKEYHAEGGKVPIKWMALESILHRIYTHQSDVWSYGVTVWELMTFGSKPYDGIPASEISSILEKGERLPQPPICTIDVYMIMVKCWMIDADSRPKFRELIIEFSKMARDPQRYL

EKVX = experiment: NCI primary anti-cancer assay (SRB), EKVX; type: cell-based; settings: Homo sapiens; 10^−5M; Non-Small Cell Lung Cancer EKVX; read-out: Growth Inhibition %
Description: as §1
as §2, with “The relation between surviving fraction and drug concentration is plotted to get the survival curve for tumor cell line after the specified time.” left out

UACC-257 = experiment: NCI primary anti-cancer assay (SRB), UACC-257; type: cell-based; settings: Homo sapiens; 10^−5M; Melanoma UACC-257; read-out: Growth Inhibition %
Description: as §1, §2

CDK2/CyclinA = target: T2, CDK2/CyclinA (Homo sapiens, UniProt P24941); experiment: CDK2/cyclinA enzymatic activity inhibition assay (32P-ATP, histone H1); type: biochemical; settings: mean of at least two independent experiments
T2 construct: hexa-histidine (N); made in house; host or cells: sf21 insect cells (baculovirus)

A549/ATCC = experiment: NCI primary anti-cancer assay (SRB), A549/ATCC; type: cell-based; settings: Homo sapiens; 10^−5M; Non-Small Cell Lung Cancer A549/ATCC; read-out: Growth Inhibition %
Description: as §1, §2

[2] = system: 60 human tumor cell lines; experiment: NCI primary anti-cancer assay, summary over tumor cell lines; type: cell-based; settings: 10^−5M, Non-small cell lung cancer, Ovarian cancer, Leukemia and Melanoma lines / different tumor cell lines, read-out: growth inhibitions (range over cell lines)
Description: as §1, §2

MOLT-4 = experiment: NCI primary anti-cancer assay (SRB), MOLT-4; type: cell-based; settings: Homo sapiens; 10^−5M; Leukemia MOLT-4; read-out: Growth Inhibition %
Description: as §1, §2

CDK4/CyclinD = CDK4/CyclinD (Homo sapiens, UniProt P11802); experiment: CDK4/CyclinD inhibition assay; type: biochemical; settings: mean of at least two independent experiments
Chain of CDK4/CyclinD (P11802 whole entry, species assumed): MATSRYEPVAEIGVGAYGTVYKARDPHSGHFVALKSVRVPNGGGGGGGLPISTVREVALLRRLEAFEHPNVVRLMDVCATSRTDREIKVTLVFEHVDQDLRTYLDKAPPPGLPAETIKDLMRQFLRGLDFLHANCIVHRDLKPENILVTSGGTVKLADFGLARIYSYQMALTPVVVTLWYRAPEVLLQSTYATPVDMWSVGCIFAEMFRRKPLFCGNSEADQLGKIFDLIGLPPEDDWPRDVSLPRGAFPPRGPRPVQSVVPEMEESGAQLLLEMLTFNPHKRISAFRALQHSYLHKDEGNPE
Chain of CDK4/CyclinD (P24385 whole entry partner, species assumed): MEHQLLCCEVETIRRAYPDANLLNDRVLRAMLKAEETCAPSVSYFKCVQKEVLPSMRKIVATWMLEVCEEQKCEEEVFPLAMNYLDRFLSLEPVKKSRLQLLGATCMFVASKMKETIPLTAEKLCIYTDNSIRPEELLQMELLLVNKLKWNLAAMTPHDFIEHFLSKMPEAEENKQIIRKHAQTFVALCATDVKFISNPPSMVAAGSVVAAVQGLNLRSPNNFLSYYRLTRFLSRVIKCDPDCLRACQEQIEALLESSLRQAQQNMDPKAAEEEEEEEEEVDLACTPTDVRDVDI

RPMI-8226 = experiment: NCI primary anti-cancer assay (SRB), RPMI-8226; type: cell-based; settings: Homo sapiens; 10^−5M; Leukemia RPMI-8226; read-out: Growth Inhibition %
Description: as §1, §2

BT-549 = experiment: NCI primary anti-cancer assay (SRB), BT-549; type: cell-based; settings: Homo sapiens; 10^−5M; Breast Cancer BT-549; read-out: Growth Inhibition %
Description: as §1
as §2, with “The relation between surviving fraction and drug concentration is plotted to get the survival curve for tumor cell line after the specified time.” left out

HOP-92 = experiment: NCI primary anti-cancer assay (SRB), HOP-92; type: cell-based; settings: Homo sapiens; 10^−5M; Non-Small Cell Lung Cancer HOP-92; read-out: Growth Inhibition %
Description: as §1, §2

HL-60(TB) = experiment: NCI primary anti-cancer assay (SRB), HL-60(TB); type: cell-based; settings: Homo sapiens; 10^−5M; Leukemia HL-60(TB); read-out: Growth Inhibition %
Description: as §1, §2

OVCAR-8 = experiment: NCI primary anti-cancer assay (SRB), OVCAR-8; type: cell-based; settings: Homo sapiens; 10^−5M; Ovarian Cancer OVCAR-8; read-out: Growth Inhibition %
Description: as §1, §2

MCF7 = experiment: NCI primary anti-cancer assay (SRB), MCF7; type: cell-based; settings: Homo sapiens; 10^−5M; Breast Cancer MCF7; read-out: Growth Inhibition %
Description: as §1
as §2, with “The relation between surviving fraction and drug concentration is plotted to get the survival curve for tumor cell line after the specified time.” left out

SF-539 = experiment: NCI primary anti-cancer assay (SRB), SF-539; type: cell-based; settings: Homo sapiens; 10^−5M; CNS Cancer SF-539; read-out: Growth Inhibition %
Description: as §1, §2

HS 578T = experiment: NCI primary anti-cancer assay (SRB), HS 578T; type: cell-based; settings: Homo sapiens; 10^−5M; Breast Cancer HS 578T; read-out: Growth Inhibition %
Description: as §1, §2

K-562 = experiment: NCI primary anti-cancer assay (SRB), K-562; type: cell-based; settings: Homo sapiens, K562; 10^−5M; Leukemia K-562; read-out: Growth Inhibition %
Description: as §1, §2

MDA-MB-231/ATCC = experiment: NCI primary anti-cancer assay (SRB), MDA-MB-231/ATCC; type: cell-based; settings: Homo sapiens; 10^−5M; Breast Cancer MDA-MB-231/ATCC; read-out: Growth Inhibition %
Description: as §1, §2

Compound | inhibition at 10 µM (IGROV1) | inhibition at 10 µM (UO-31) | IC50 [1] | inhibition at 10 µM (EKVX) | IC50 (CDK2/CyclinA) | inhibition at 10 µM [2] | inhibition at 10 µM (MOLT-4) | melting point | IC50 (CDK4/CyclinD) | inhibition at 10 µM (RPMI-8226) | inhibition at 10 µM (HOP-92) | inhibition at 10 µM (HL-60(TB)) | further results
O=c1[nH]c(NCc2ccccc2)nc2nc(Nc3ccc(NC(=S)Nc4ccccc4)cc3)nc(-c3ccc(O)cc3O)c12 [Compound 7a, 1-(4-{[7-(Benzylamino)-4-(2,4-dihydroxyphenyl)-5-oxo-5,6-dihydropyrimido[4,5-d]pyrimidin-2-yl]amino}phenyl)-3-phenylthiourea] | 29.7% | 21.4% | > 10 µM | 36.8% | 0.31 µM | 50 to 70% | 36.7% | > 300 °C | 3.33 µM | 22.6% |  |  | inhibition at 10 µM (UACC-257): 60.3%; inhibition at 10 µM (A549/ATCC): 58.4%
Cc1nc(Nc2ccc(NC(=S)Nc3ccccc3)cc2)nc2nc(Nc3ccc(S(=O)(=O)O)cc3)[nH]c(=O)c12 [Compound 7h, 4-{[5-Methyl-4-oxo-7-({4-[(phenylcarbamothioyl)amino]phenyl}amino)-3,4-dihydropyrimido[4,5-d]pyrimidin-2-yl]amino}benzenesulfonic acid] | 28% | 21.1% | > 10 µM |  | 6 µM | 50 to 70% | 20.8% | > 300 °C | > 10 µM | 52.5% | 24.3% | 29% | inhibition at 10 µM (BT-549): 39%; inhibition at 10 µM (OVCAR-8): 50.2%; IC50 CDK4/CyclinD (CDK4/CyclinD): no activity
Cc1nc(Nc2ccc(NC(=S)Nc3ccccc3)cc2)nc2nc(NCc3ccccc3)[nH]c(=O)c12 [Compound 7b, 1-(4-{[7-(Benzylamino)-4-methyl-5-oxo-5,6-dihydropyrimido[4,5-d]pyrimidin-2-yl]amino}-phenyl)-3-phenylthiourea] |  |  | > 10 µM | 28.5% | 0.86 µM | 50 to 70% | 32.9% | > 300 °C | 4.85 µM | 50.2% | 20.8% | 24.5% | inhibition at 10 µM (MCF7): 43.5%; inhibition at 10 µM (SF-539): 42%; inhibition at 10 µM (HS 578T): 33.6%; inhibition at 10 µM (K-562): 53.7%; inhibition at 10 µM (MDA-MB-231/ATCC): 31.5%
